Measured values reported in patent US4075339A, “Biologically active compounds” (University of Illinois Foundation, priority 1976, dated 1978).
Values after ≈ are worked out from the molar mass of the structure shown.

What was measured:
[1] = tested on: Reverse Transcriptase of Rauscher Leukemia Virus; assay: Inhibition of Reverse Transcriptase of Rauscher Leukemia Virus; format: biochemical; parameters: Reverse Transcriptase of Rauscher Leukemia Virus % Inhibition: concentration or dose not given beside the values; conditions: for Reverse Transcriptase of Rauscher Leukemia Virus % Inhibition: 37° C. for 90 minutes (Table 3); for Reverse transcriptase activity, cpm: 37° C. for 90 minutes, control 5396 cpm; for RLV Reverse Transcriptase % Inhibition: at a concentration of 0.25 μmole/ml (Table 4), 90 min
Procedure: *(The reverse transcriptase activity was measured at 37° C. for 90
(§1) Table 4, below, relates to the activity of compounds of Examples VIII through XVIII as bacterial RNA polymerase inhibitors and as inhibitors of reverse transcriptase when tested in the manner the compounds of Examples I through V as related, supra, in Tables 2 and 3.
**At a concentration of 0.25 μmole/ml.

E. coli = assay: Bacterial inhibition, MIC in brain heart infusion broth; format: cell-based; conditions: Escherichia coli, read-out: MIC (minimal inhibitory concentration)
Source text: (§2) ^a Minimal inhibitory concentration in brain heart infusion broth.

P. vulgaris = assay: as above; format: cell-based; conditions: Proteus vulgaris, read-out: MIC (minimal inhibitory concentration)
Source text: as §2

Ps. aeruginosa = assay: as above; format: cell-based; conditions: Pseudomonas aeruginosa, read-out: MIC (minimal inhibitory concentration)
Source text: as §2

S. aureus = assay: as above; format: cell-based; conditions: Staphylococcus aureus, read-out: MIC (minimal inhibitory concentration)
Source text: as §2

D. penumoniae = assay: as above; format: cell-based; conditions: read-out: MIC (minimal inhibitory concentration)
Source text: as §2

S. Hemolyticus = assay: as above; format: cell-based; conditions: read-out: MIC (minimal inhibitory concentration)
Source text: as §2

St. Faecalis = assay: as above; format: cell-based; conditions: Enterococcus faecalis, read-out: MIC (minimal inhibitory concentration)
Source text: as §2

K. pneumoniae = assay: as above; format: cell-based; conditions: Klebsiella pneumoniae, read-out: MIC (minimal inhibitory concentration)
Source text: as §2

E. coli RNA Polymerase = E. coli RNA Polymerase (Escherichia coli, UniProt P0A8V2); assay: E. coli RNA Polymerase Inhibition; format: biochemical; conditions: 0.25 h; for remaining activity at 500 µM: 0.5 μM/ml of compound, room temperature, 15 minutes, control = 100; for inhibition at 500 µM: at a concentration of 0.5 μmole/ml (Table 4)
Procedure: The assay mixtures contained, in a total volume of 0.25 ml: (Tris)HCl
buffer, pH 7.9, 5 μmoles; MgCl2, 1 μmole; mercaptoethanol, 3
μmoles; MpCl2, 0.25 μmole: GTP, UTP, and CTP, 0.1 μmole
polymerase, 0.5 units; and […] of compound. Reactions were run a
room temperature for 15 minutes.
as §1
*At a concentration of 0.5 μmole/ml.

Chain of E. coli RNA Polymerase (P0A8V2 whole entry): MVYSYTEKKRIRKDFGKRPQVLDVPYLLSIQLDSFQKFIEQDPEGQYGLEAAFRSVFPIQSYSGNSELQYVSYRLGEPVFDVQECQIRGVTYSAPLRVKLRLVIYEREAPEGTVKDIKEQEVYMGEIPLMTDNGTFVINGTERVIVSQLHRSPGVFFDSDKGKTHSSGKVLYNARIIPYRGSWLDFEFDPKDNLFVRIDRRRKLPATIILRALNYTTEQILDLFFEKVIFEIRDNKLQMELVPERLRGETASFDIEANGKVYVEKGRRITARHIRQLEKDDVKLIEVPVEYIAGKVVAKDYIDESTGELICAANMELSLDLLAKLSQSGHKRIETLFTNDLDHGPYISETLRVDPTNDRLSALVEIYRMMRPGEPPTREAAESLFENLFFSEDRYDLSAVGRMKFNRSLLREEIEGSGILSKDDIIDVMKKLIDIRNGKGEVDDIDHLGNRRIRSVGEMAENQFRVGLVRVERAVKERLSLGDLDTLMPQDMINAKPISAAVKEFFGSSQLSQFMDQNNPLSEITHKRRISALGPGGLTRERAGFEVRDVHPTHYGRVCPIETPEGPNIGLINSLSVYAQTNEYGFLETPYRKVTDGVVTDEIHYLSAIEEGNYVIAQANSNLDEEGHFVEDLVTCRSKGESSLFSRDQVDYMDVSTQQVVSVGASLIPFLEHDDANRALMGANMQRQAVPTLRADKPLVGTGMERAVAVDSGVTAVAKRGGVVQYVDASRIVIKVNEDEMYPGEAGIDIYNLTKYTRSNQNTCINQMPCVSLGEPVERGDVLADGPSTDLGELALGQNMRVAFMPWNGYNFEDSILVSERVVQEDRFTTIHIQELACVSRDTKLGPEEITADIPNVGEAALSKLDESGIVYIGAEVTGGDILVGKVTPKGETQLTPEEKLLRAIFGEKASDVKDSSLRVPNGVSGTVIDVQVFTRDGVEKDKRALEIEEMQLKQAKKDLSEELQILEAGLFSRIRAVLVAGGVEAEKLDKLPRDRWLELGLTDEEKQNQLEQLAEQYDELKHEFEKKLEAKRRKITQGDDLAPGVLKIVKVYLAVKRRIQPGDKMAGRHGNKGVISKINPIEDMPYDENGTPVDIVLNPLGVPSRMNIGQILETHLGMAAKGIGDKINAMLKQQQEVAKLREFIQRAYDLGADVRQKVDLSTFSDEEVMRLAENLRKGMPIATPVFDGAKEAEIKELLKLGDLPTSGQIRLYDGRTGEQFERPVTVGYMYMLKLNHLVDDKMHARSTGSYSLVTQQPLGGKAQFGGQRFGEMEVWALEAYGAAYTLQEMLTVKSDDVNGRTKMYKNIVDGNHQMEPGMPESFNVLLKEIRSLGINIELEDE
Chain of E. coli RNA Polymerase (P0A8T7 whole entry partner): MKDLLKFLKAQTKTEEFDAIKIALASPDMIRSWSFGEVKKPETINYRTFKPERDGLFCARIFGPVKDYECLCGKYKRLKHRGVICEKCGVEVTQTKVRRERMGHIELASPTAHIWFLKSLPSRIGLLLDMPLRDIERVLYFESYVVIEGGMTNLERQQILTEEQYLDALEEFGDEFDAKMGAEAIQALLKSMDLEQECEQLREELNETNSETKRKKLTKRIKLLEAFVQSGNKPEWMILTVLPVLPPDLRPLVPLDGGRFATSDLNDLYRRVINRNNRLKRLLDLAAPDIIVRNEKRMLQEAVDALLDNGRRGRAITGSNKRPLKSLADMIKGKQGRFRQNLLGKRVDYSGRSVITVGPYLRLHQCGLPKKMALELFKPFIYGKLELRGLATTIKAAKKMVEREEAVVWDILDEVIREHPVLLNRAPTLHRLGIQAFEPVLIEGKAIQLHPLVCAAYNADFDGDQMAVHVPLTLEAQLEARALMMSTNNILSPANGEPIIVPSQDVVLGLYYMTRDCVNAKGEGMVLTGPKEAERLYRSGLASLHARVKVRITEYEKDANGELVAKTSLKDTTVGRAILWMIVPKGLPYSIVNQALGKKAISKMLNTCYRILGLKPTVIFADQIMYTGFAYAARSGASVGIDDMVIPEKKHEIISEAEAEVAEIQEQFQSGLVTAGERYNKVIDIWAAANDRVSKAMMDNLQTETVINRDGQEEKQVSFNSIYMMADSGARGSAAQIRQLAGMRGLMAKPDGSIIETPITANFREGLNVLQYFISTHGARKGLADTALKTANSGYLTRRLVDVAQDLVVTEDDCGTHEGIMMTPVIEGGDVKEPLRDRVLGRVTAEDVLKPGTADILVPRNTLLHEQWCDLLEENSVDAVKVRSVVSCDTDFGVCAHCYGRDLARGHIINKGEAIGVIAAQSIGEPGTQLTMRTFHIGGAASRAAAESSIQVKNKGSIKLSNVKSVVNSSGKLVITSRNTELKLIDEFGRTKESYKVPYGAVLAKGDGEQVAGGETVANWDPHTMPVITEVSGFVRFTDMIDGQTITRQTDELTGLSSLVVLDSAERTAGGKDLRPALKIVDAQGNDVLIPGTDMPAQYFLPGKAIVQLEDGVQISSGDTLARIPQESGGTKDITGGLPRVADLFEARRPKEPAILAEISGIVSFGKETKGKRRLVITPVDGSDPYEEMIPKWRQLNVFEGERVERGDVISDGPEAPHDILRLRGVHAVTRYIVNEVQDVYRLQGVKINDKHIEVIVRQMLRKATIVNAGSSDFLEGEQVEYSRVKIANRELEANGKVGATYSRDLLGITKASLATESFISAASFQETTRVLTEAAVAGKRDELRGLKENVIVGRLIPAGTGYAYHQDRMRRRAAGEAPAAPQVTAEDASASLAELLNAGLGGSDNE
Chain of E. coli RNA Polymerase (P0A7Z4 whole entry partner): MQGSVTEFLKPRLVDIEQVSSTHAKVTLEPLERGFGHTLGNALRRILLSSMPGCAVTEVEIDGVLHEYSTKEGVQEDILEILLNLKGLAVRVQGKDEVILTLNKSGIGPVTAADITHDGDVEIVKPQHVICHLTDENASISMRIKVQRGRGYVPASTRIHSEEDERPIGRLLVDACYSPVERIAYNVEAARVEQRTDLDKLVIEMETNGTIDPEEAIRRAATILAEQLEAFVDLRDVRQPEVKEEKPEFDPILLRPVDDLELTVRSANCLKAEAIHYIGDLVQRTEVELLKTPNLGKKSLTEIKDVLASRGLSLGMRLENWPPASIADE
Chain of E. coli RNA Polymerase (P0A800 whole entry partner): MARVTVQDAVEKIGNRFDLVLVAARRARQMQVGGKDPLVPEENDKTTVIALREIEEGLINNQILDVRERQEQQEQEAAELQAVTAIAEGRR

COC1=C2CC(C)CC(OC)C(O)C(C)/C=C(\C)C(OC(N)=O)C(OC)/C=C\C=C(/C)C(=O)NC(=C(C=NC(C)(C)C)C1=O)C2=O (stereo not shown) [Example I]
Reverse Transcriptase of Rauscher Leukemia Virus % Inhibition [1]: 93.0% | Reverse transcriptase activity, cpm [1]: 376 cpm | MIC (E. coli): 500 µg/mL (≈ 777 µM) | MIC (P. vulgaris): 500 µg/mL (≈ 777 µM) | MIC (Ps. aeruginosa): 250 µg/mL (≈ 388 µM) | MIC (S. aureus): 500 µg/mL (≈ 777 µM) | MIC (D. penumoniae): 250 µg/mL (≈ 388 µM) | MIC (S. Hemolyticus): 250 µg/mL (≈ 388 µM) | MIC (St. Faecalis): > 500 µg/mL | MIC (K. pneumoniae): 500 µg/mL (≈ 777 µM) | remaining activity at 500 µM (E. coli RNA Polymerase): 99%

COC1=C2CC(C)CC(OC)C(O)C(C)/C=C(\C)C(OC(N)=O)C(OC)/C=C\C=C(/C)C(=O)NC(=C(C=NOC(c3ccccc3)c3ccccc3)C1=O)C2=O (stereo not shown) [III]
Reverse Transcriptase of Rauscher Leukemia Virus % Inhibition [1]: 98.6% | Reverse transcriptase activity, cpm [1]: 75 cpm | MIC (E. coli): > 500 µg/mL | MIC (P. vulgaris): > 500 µg/mL | MIC (Ps. aeruginosa): > 500 µg/mL | MIC (S. aureus): > 500 µg/mL | MIC (D. penumoniae): 62.5 µg/mL (≈ 81.2 µM) | MIC (S. Hemolyticus): 31.2 µg/mL (≈ 40.5 µM) | MIC (St. Faecalis): > 500 µg/mL | MIC (K. pneumoniae): > 500 µg/mL | remaining activity at 500 µM (E. coli RNA Polymerase): 84%

COC1=C2CC(C)CC(OC)C(O)C(C)/C=C(\C)C(OC(N)=O)C(OC)/C=C\C=C(/C)C(=O)NC(=C(C=NN3CCN(C)CC3)C1=O)C2=O (stereo not shown) [II]
Reverse Transcriptase of Rauscher Leukemia Virus % Inhibition [1]: 93.4% | Reverse transcriptase activity, cpm [1]: 357 cpm | MIC (E. coli): 500 µg/mL (≈ 729 µM) | MIC (P. vulgaris): 500 µg/mL (≈ 729 µM) | MIC (Ps. aeruginosa): 250 µg/mL (≈ 365 µM) | MIC (S. aureus): > 500 µg/mL | MIC (D. penumoniae): 500 µg/mL (≈ 729 µM) | MIC (S. Hemolyticus): 500 µg/mL (≈ 729 µM) | MIC (St. Faecalis): > 500 µg/mL | MIC (K. pneumoniae): 500 µg/mL (≈ 729 µM) | remaining activity at 500 µM (E. coli RNA Polymerase): 106%

CCCCCCCCON=CC1=C2NC(=O)/C(C)=C/C=C\C(OC)C(OC(N)=O)/C(C)=C/C(C)C(O)C(OC)CC(C)CC(=C(OC)C1=O)C2=O (stereo not shown) [IV]
Reverse Transcriptase of Rauscher Leukemia Virus % Inhibition [1]: 94.4% | Reverse transcriptase activity, cpm [1]: 303 cpm | MIC (E. coli): > 500 µg/mL | MIC (P. vulgaris): > 500 µg/mL | MIC (Ps. aeruginosa): > 500 µg/mL | MIC (S. aureus): > 500 µg/mL | MIC (D. penumoniae): 7.8 µg/mL (≈ 10.9 µM) | MIC (S. Hemolyticus): 7.8 µg/mL (≈ 10.9 µM) | MIC (St. Faecalis): > 500 µg/mL | MIC (K. pneumoniae): > 500 µg/mL | remaining activity at 500 µM (E. coli RNA Polymerase): 110%

COC1/C=C\C=C(/C)C(=O)Nc2cc3nc4ccccc4nc3c(c2O)CC(C)CC(OC)C(O)C(C)/C=C(\C)C1OC(N)=O (stereo not shown) [VIII, demethoxygeldanazine]
RLV Reverse Transcriptase % Inhibition [1]: 98% | inhibition at 500 µM (E. coli RNA Polymerase): 5 to 16%

COC1=C2CC(C)CC(OC)C(O)C(C)/C=C(\C)C(OC(N)=O)C(OC)/C=C\C=C(/C)C(=O)NC(=C(C=NN3CCN(Cc4ccccc4)CC3)C1=O)C2=O (stereo not shown) [V]
Reverse Transcriptase of Rauscher Leukemia Virus % Inhibition [1]: 97.1% | Reverse transcriptase activity, cpm [1]: 154 cpm | MIC (E. coli): 500 µg/mL (≈ 656 µM) | MIC (P. vulgaris): 500 µg/mL (≈ 656 µM) | MIC (Ps. aeruginosa): 250 µg/mL (≈ 328 µM) | MIC (S. aureus): 500 µg/mL (≈ 656 µM) | MIC (D. penumoniae): 62.5 µg/mL (≈ 82 µM) | MIC (S. Hemolyticus): 125 µg/mL (≈ 164 µM) | MIC (St. Faecalis): 500 µg/mL (≈ 656 µM) | MIC (K. pneumoniae): 500 µg/mL (≈ 656 µM) | remaining activity at 500 µM (E. coli RNA Polymerase): 88%

COC1/C=C\C=C(/C)C(=O)Nc2cc3nc4ccc(C)cc4oc-3c(c2=O)CC(C)CC(OC)C(O)C(C)/C=C(\C)C1OC(N)=O (stereo not shown) [XIII]
RLV Reverse Transcriptase % Inhibition [1]: 77% | inhibition at 500 µM (E. coli RNA Polymerase): 21%

COC1/C=C\C=C(/C)C(=O)Nc2cc3nc4cc(C)ccc4oc-3c(c2=O)CC(C)CC(OC)C(O)C(C)/C=C(\C)C1OC(N)=O (stereo not shown) [XII]
RLV Reverse Transcriptase % Inhibition [1]: 89% | inhibition at 500 µM (E. coli RNA Polymerase): 9%

COC1/C=C\C=C(/C)C(=O)Nc2cc3nc4cccc(C)c4oc-3c(c2=O)CC(C)CC(OC)C(O)C(C)/C=C(\C)C1OC(N)=O (stereo not shown) [XIV]
RLV Reverse Transcriptase % Inhibition [1]: 72% | inhibition at 500 µM (E. coli RNA Polymerase): 6%

COC1/C=C\C=C(/C)C(=O)Nc2cc3nc4ccccc4oc-3c(c2=O)CC(C)CC(OC)C(O)C(C)/C=C(\C)C1OC(N)=O (stereo not shown) [XI]
RLV Reverse Transcriptase % Inhibition [1]: 98% | inhibition at 500 µM (E. coli RNA Polymerase): 61 to 67%

COC(=O)[C@@H](NC(=O)c1ccc(C)c2oc3c4c(=O)c(cc-3nc12)NC(=O)/C(C)=C/C=C\C(OC)C(OC(N)=O)/C(C)=C/C(C)C(O)C(OC)CC(C)C4)[C@@H](C)O (stereo partly shown) [XVIII]
RLV Reverse Transcriptase % Inhibition [1]: 0%

COC(=O)c1cccc2oc3c4c(=O)c(cc-3nc12)NC(=O)/C(C)=C/C=C\C(OC)C(OC(N)=O)/C(C)=C/C(C)C(O)C(OC)CC(C)C4 (stereo not shown) [XVII]
RLV Reverse Transcriptase % Inhibition [1]: 0%

COC1/C=C\C=C(/C)C(=O)Nc2cc3nc4cc(Cl)ccc4oc-3c(c2=O)CC(C)CC(OC)C(O)C(C)/C=C(\C)C1OC(N)=O (stereo not shown) [XVI]
RLV Reverse Transcriptase % Inhibition [1]: 60%

COC1/C=C\C=C(/C)C(=O)Nc2cc3nc4cc(Br)ccc4oc-3c(c2=O)CC(C)CC(OC)C(O)C(C)/C=C(\C)C1OC(N)=O (stereo not shown) [XV]
RLV Reverse Transcriptase % Inhibition [1]: 82 - 100% | inhibition at 500 µM (E. coli RNA Polymerase): 60%
